Experiment [1] addresses T1, B1R receptor of the rat (rB1R) (Rattus norvegicus, UniProt P97583).
T1 construct: expressed in transfected cells; host or cells: CHO K1 cells
T1 sequence (P97583 1-337): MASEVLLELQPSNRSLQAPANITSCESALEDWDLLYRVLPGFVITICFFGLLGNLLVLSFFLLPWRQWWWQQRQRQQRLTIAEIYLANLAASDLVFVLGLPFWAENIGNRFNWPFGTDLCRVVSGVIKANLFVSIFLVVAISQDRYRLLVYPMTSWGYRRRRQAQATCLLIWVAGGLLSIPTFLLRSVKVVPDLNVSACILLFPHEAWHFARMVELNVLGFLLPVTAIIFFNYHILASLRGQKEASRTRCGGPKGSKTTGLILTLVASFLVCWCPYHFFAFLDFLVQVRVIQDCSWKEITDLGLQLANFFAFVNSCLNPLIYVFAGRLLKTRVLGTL
Description: Functional investigation on the bradykinin 1 receptor (B1R), FLIPR Ca2+ assay, rB1R cells. Type of experiment: cell-based. The following applies: test substance 10 μM; CHO K1 cells transfected with rat B1R gene; Fluo-4 Ca2+ signal; agonist Des-Arg9-bradykinin at EC80; % of maximum achievable inhibition; read-out: B1R antagonism, rat [10 μM] % inhibition. In a few lines:
(§1)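 CHO K1 cells stably expressing human or rat B1R, Fluo-4 loaded, read by FLIPR (λex 488, λem 540 nm). Test compound (10 μM) first gave % activation against Lys-Des-[MUT]-bradykinin ≥50 nM (hB1R) or Des-[MUT]-bradykinin 10 μM (rB1R). After 10–20 min, agonist at EC80 was added; % inhibition or IC50 from concentration series, n=2–3, N≥2.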

Experiment [2] deals with T2, human B1R receptor (hB1R) (Homo sapiens, UniProt P46663).
T2 construct: expressed in transfected cells; host or cells: CHO K1 cells
T2 sequence (P46663 1-353): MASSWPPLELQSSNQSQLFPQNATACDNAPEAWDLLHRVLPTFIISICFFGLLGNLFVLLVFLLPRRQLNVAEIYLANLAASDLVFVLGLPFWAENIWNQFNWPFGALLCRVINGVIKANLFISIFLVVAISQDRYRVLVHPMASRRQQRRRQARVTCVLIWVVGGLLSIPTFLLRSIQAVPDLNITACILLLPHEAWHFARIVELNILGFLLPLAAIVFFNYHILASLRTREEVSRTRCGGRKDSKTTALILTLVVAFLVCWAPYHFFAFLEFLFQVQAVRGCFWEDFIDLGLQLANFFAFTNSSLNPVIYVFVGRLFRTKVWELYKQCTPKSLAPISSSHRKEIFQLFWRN
Kind of experiment: Functional investigation on the bradykinin 1 receptor (B1R), FLIPR Ca2+ assay, hB1R cells. Type of experiment: cell-based. The following applies: test substance 10 μM; CHO K1 cells transfected with human B1R gene; Fluo-4 Ca2+ signal; agonist Lys-Des-Arg9-bradykinin at EC80; % of maximum achievable inhibition; read-out: B1R antagonism, human [10 μM] % inhibition. In a few lines: as §1

The term inhibition denotes the change of the read-out against control, counted positive when it falls. Regarding `Cc1cc(F)cc(C)c1S(=O)(=O)N1CCC[C@H]1CCCS(=O)(=O)N1CCC(Oc2ccncc2)CC1` [Example 73, (S)-4-(1-(3-(1-(4-Fluoro-2,6-dimethylphenylsulfonyl)pyrrolidin-2-yl)propylsulfonyl)piperidin-4-yloxy)pyridine], the inhibition at 10 µM in experiment [1] worked out at 99%; in experiment [2], 89%.

Take `Cc1cc(S(=O)(=O)N2CCC[C@H]2CCCS(=O)(=O)N2CCN(C3CCN(C)CC3)CC2)c(C)cc1Cl` [Example 29, (S)-1-(3-(1-(4-Cloro-2,5-dimethylphenylsulfonyl)pyrrolidin-2-yl)propylsulfonyl)-4-(1-methylpiperidin-4-yl)piperazine]: the inhibition at 10 µM amounted to 46% in experiment [1] and 87% in experiment [2].

The values above are taken from patent US8119805B2, “Substituted disulfonamide compounds” (Gruenenthal GmbH, priority 2008, dated 2012).
